Several values for one entry are separate records, joined by “and”; a condition that tells them apart may be missing. Identical values can stand only once.
Test system: 233499-124-R-J3-PDC complex spheroid viability
Experiment: Anticancer human tumor 233499-124-R-J3-PDC patient-derived colon adenocarcinoma cell line growth inhibition [CLK]
Conditions: for viability, T/C: stronger effect = lower value; active = viability on the fitted dose curve at most 10% of control; inactive = the rest
Source text: A high-throughput screen of multi-cell type tumor spheroids was designed to identify active combinations of […] and targeted small molecules. Complex spheroids include a stromal component modeled by human endothelial cells (HUVEC) and fibroblasts modeled by human mesenchymal stem cells (MSCs). The concentration ranges selected for each drug and investigational agent were based upon clinically achievable concentrations if the clinical Cmax of the agent was known.
Compounds. The drugs and investigational agents: cirtuvivint (SM08502; NSC835563), CC-671 (NSC850746), vemurafenib (NSC761431), tapotoclax (NSC804041), sotorasib (NSC818433), adagrasib (NSC831453), MRTX-1133 (NSC836407), BAY2416964 (NSC825713), copanlisib (NSC816437), inavolisib (NSC800729), abemaciclib (NSC768073), osimertinib (NSC779217), entinostat (NSC756642), eltanexor (KPT-8602, NSC794443), venetoclax (NSC766270), ceralasertib (NSC777638), bortezomib (NSC756655), olaparib (NSC753686), talazoparib (NSC767125), alisertib (NSC759677), peposertib (NSC802822), gemcitabine (NSC613327), 5-fluorouracil (NSC19893), SN-38 (NSC673596), oxaliplatin (NSC266046), paclitaxel (NSC125973), and doxorubicin (NSC123127), were obtained from the National Cancer Institute (NCI) Developmental Therapeutics Program Chemical Repository. The FDA-approved anticancer drug set is available from the Developmental Therapeutics Program at https://dtp.cancer.gov/organization/dscb/obtaining/available plates.htm. […] The stock solutions were prepared in dimethyl sulfoxide (DMSO, Sigma-Aldrich, St. Louis, MO, cat. D2650), except for the platinum complexes which were prepared in saline (Quality Biological, Gaithersburg, MD, cat. 114-055-101), at 800-fold the tested concentration and stored at -70 degrees C prior to their use. All drugs and investigational agents were tested over a range starting from a high concentration at or near the clinical Cmax and decreasing in half-log increments. If the clinical Cmax for an agent had not been determined, the highest concentration tested was 10 microM.
Cell Culture. All cells were maintained in an incubator at 37 degrees C and 5% CO2 with 95% humidity. The PDC lines were cultured according to standard operating procedures established by the NCI PDMR. Briefly, all PDCs were thawed and cultured in Matrigel-coated flasks prepared with a working solution of 1X Ham's F-12 nutrient mix, without supplementation (Invitrogen, Waltham, MA, cat. 11765054), 100 U/mL penicillin-streptomycin (Invitrogen, cat. 15140122), and 2.5% Matrigel (Corning Inc., Corning, NY, cat. 354248) for the first three passages. The 947758-054-R-J2-PDC line was cultured in 6B/Colon 1A media, which includes advanced DMEM/F-12 (Thermo Fisher Scientific, cat. 12634028), 10 mM HEPES (Thermo Fisher Scientific, cat. 15630080), 1X GlutaMAX supplement (Thermo Fisher Scientific, cat. 35050061), 0.1 mg/mL primocin (InvivoGen, cat. ant-pm-2), 10% defined fetal bovine serum, heat inactivated (HyClone Laboratories Inc., cat. SH30070.03HI), 1.25 mM N-Acetyl-L-cysteine (Sigma-Aldrich, cat. A9165), 10 mM nicotinamide (Sigma-Aldrich, cat. N0636), 1X B-27 supplement (Thermo Fisher Scientific, cat. 17504044), 1X N-2 supplement (Thermo Fisher Scientific, cat. 17502048), and 10 microM Y-27632 dihydrochloride (Tocris Bioscience, cat. 1254). The 876862-298-R-J1-PDC was cultured in 6E media, which includes all 6B/Colon 1A media components plus 50% L-WRN conditioned media (ATCC, cat. CRL-3276), 50 ng/mL recombinant human EGF recombinant protein (hEGF; Thermo Fisher Scientific, cat. PHG0311), 10 ng/mL recombinant human fibroblast growth factor 10 (hGFG-10; PeproTech, cat. 100-26), 1 ng/mL recombinant human fibroblast growth factor 2 (hFGF-2; PeproTech, cat. 100-18B), and 1 µM prostaglandin E2 (PGE2; Tocris, cat. 2296). The 227483-062-R1-J1-PDC line was cultured in Panc media, containing all 6E components except hFGF-2, with the addition of 500 nM SB-431542 (Selleckchem, cat. S1067) and 10 nM gastrin (Tocris, cat. 3006). […]

[1] = curve of first compound, second compound 0.0316 µM
[2] = curve of first compound, second compound 0.1 µM
[3] = curve of first compound, second compound 0.316 µM
[4] = curve of first compound, second compound 1 µM
[5] = curve of first compound, second compound 3.16 µM
[6] = curve of first compound, second compound 10 µM
[7] = second compound 0.0316 µM, first compound 0.00949 µM
[8] = second compound 0.0316 µM, first compound 0.03 µM
[9] = second compound 0.0316 µM, first compound 0.0949 µM
[10] = second compound 0.0316 µM, first compound 0.3 µM
[11] = second compound 0.0316 µM, first compound 0.949 µM
[12] = second compound 0.0316 µM, first compound 3 µM
[13] = second compound 0.1 µM, first compound 0.00949 µM
[14] = second compound 0.1 µM, first compound 0.03 µM
[15] = second compound 0.1 µM, first compound 0.0949 µM
[16] = second compound 0.1 µM, first compound 0.3 µM
[17] = second compound 0.1 µM, first compound 0.949 µM
[18] = second compound 0.1 µM, first compound 3 µM
[19] = second compound 0.316 µM, first compound 0.00949 µM
[20] = second compound 0.316 µM, first compound 0.03 µM
[21] = second compound 0.316 µM, first compound 0.0949 µM
[22] = second compound 0.316 µM, first compound 0.3 µM
[23] = second compound 0.316 µM, first compound 0.949 µM
[24] = second compound 0.316 µM, first compound 3 µM
[25] = second compound 1 µM, first compound 0.00949 µM
[26] = second compound 1 µM, first compound 0.03 µM
[27] = second compound 1 µM, first compound 0.0949 µM
[28] = second compound 1 µM, first compound 0.3 µM
[29] = second compound 1 µM, first compound 0.949 µM
[30] = second compound 1 µM, first compound 3 µM
[31] = second compound 3.16 µM, first compound 0.00949 µM
[32] = second compound 3.16 µM, first compound 0.03 µM
[33] = second compound 3.16 µM, first compound 0.0949 µM
[34] = second compound 3.16 µM, first compound 0.3 µM
[35] = second compound 3.16 µM, first compound 0.949 µM
[36] = second compound 3.16 µM, first compound 3 µM
[37] = second compound 10 µM, first compound 0.00949 µM
[38] = second compound 10 µM, first compound 0.03 µM
[39] = second compound 10 µM, first compound 0.0949 µM
[40] = second compound 10 µM, first compound 0.3 µM
[41] = second compound 10 µM, first compound 0.949 µM
[42] = second compound 10 µM, first compound 3 µM
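Note: spheroids exposed to the drug combinations for seven days.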
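Throughout, for viability, T/C: percent viability relative to DMSO vehicle control wells taken as 100%.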

CCCS(=O)(=O)Nc1ccc(F)c(C(=O)c2c[nH]c3ncc(-c4ccc(Cl)cc4)cc23)c1F
> 10000 nM: IC50 (curve of compound)
inactive: viability, T/C (compound 0.0316 µM) 91.2% and 100% | viability, T/C (compound 0.1 µM) 97.3% and 103% | viability, T/C (compound 0.316 µM) 111% and 99.1% | viability, T/C (compound 1 µM) 104% and 110% | viability, T/C (compound 3.16 µM) 104% and 105% | viability, T/C (compound 10 µM) 98% and 65.2%

NC(=O)C(=Cn1cnc(-c2cc(C(F)(F)F)cc(C(F)(F)F)c2)n1)c1cncnc1 + CNC(=O)c1ccc(Nc2nc(OC3CCCC3)c3c(-c4ccc5nc(C)oc5c4)c[nH]c3n2)c(OC)c1
161 nM: IC50 [6]
inactive: viability, T/C [7] 85.5% | viability, T/C [8] 85.5% | viability, T/C [9] 79.8% | viability, T/C [10] 78.2% | viability, T/C [11] 33.4% | viability, T/C [12] 15.5% | viability, T/C [13] 85.3% | viability, T/C [14] 80.8% | viability, T/C [15] 72.8% | viability, T/C [16] 34.5% | viability, T/C [17] 44.1% | viability, T/C [18] 15.7% | viability, T/C [19] 74.6% | viability, T/C [20] 90.3% | viability, T/C [21] 81.5% | viability, T/C [22] 31.8% | viability, T/C [23] 35.3% | viability, T/C [24] 12% | viability, T/C [25] 75.4% | viability, T/C [26] 75.1% | viability, T/C [27] 51.2% | viability, T/C [28] 39.9% | viability, T/C [29] 11.4% | viability, T/C [31] 68.9% | viability, T/C [32] 65% | viability, T/C [33] 71.1% | viability, T/C [34] 26.3% | viability, T/C [37] 73.5% | viability, T/C [38] 69.8% | viability, T/C [39] 67% | viability, T/C [40] 30.5%
active: viability, T/C [30] 10.6% | viability, T/C [35] 9.48% | viability, T/C [36] 4.46% | viability, T/C [41] 6.86% | viability, T/C [42] 1.62%
133 nM: IC50 [4]
263 nM: IC50 [2]
157 nM: IC50 [5]
618 nM: IC50 [1]
197 nM: IC50 [3]

NC(=O)C(=Cn1cnc(-c2cc(C(F)(F)F)cc(C(F)(F)F)c2)n1)c1cncnc1 + CN1CCN(c2cc(C(=O)Nc3cc4cc(-c5cnn(C)c5)ccc4cn3)ccn2)CC1
inactive: viability, T/C [7] 72.5% | viability, T/C [8] 85.6% | viability, T/C [9] 67.3% | viability, T/C [10] 35.2% | viability, T/C [13] 102% | viability, T/C [14] 96.2% | viability, T/C [15] 39.2% | viability, T/C [19] 22.2% | viability, T/C [20] 13.2%
76.8 nM: IC50 [2]
181 nM: IC50 [1]
< 9.49 nM: IC50 [3] | IC50 [4] | IC50 [5] | IC50 [6]
active: viability, T/C [11] 10.4% | viability, T/C [12] 2.15% | viability, T/C [16] 7.63% | viability, T/C [17] 0.53% | viability, T/C [18] 0.43% | viability, T/C [21] 0.29% | viability, T/C [22] 0.23% | viability, T/C [23] 0.39% | viability, T/C [24] 1.07% | viability, T/C [25] 0.3% | viability, T/C [26] 0.31% | viability, T/C [27] 0.31% | viability, T/C [28] 0.25% | viability, T/C [29] 0.48% | viability, T/C [30] 0.23% | viability, T/C [31] 0.3% | viability, T/C [32] 0.26% | viability, T/C [33] 0.25% | viability, T/C [34] 0.25% | viability, T/C [35] 0.21% | viability, T/C [36] 0.19% | viability, T/C [37] 0.13% | viability, T/C [38] 0.12% | viability, T/C [39] 0.19% | viability, T/C [40] 0.17% | viability, T/C [41] 0.19% | viability, T/C [42] 0.21%

CC(C)CC(NC(=O)C(Cc1ccccc1)NC(=O)c1cnccn1)B(O)O (stereo not drawn) + CNC(=O)c1ccc(Nc2nc(OC3CCCC3)c3c(-c4ccc5nc(C)oc5c4)c[nH]c3n2)c(OC)c1
active: viability, T/C [7] 0.33% | viability, T/C [8] 0.21% | viability, T/C [9] 0.19% | viability, T/C [10] 0.17% | viability, T/C [13] 0.57% | viability, T/C [14] 0.17% | viability, T/C [15] 0.16% | viability, T/C [16] 0.16% | viability, T/C [19] 0.19% | viability, T/C [20] 0.16% | viability, T/C [21] 0.14% | viability, T/C [22] 0.54% | viability, T/C [25] 0.18% | viability, T/C [26] 0.15% | viability, T/C [27] 0.15% | viability, T/C [28] 0.15% | viability, T/C [31] 0.16% | viability, T/C [32] 0.16% | viability, T/C [33] 0.16% | viability, T/C [34] 0.7% | viability, T/C [37] 0.2% | viability, T/C [38] 0.17% | viability, T/C [39] 0.2% | viability, T/C [40] 0.66%
2.27 nM: IC50 [3]
inactive: viability, T/C (second compound 0.0316 µM, first compound 0.000949 µM) 96.3% | viability, T/C (second compound 0.0316 µM, first compound 0.003 µM) 106% | viability, T/C (second compound 0.1 µM, first compound 0.000949 µM) 81.5% | viability, T/C (second compound 0.1 µM, first compound 0.003 µM) 82.5% | viability, T/C (second compound 0.316 µM, first compound 0.000949 µM) 69.5% | viability, T/C (second compound 0.316 µM, first compound 0.003 µM) 43.7% | viability, T/C (second compound 1 µM, first compound 0.000949 µM) 92.2% | viability, T/C (second compound 1 µM, first compound 0.003 µM) 30.1% | viability, T/C (second compound 3.16 µM, first compound 0.000949 µM) 71.7% | viability, T/C (second compound 3.16 µM, first compound 0.003 µM) 18.4% | viability, T/C (second compound 10 µM, first compound 0.000949 µM) 77% | viability, T/C (second compound 10 µM, first compound 0.003 µM) 34.5%
1.51 nM: IC50 [5]
2.07 nM: IC50 [4]
1.97 nM: IC50 [6]
4.71 nM: IC50 [2]
5.39 nM: IC50 [1]

Reference: PubChem BioAssay AID2060613 (Molecular Pharmacology Branch, DTP, NCI, 2025)
